System: mutant Huntington (HTT) protein
Test: HTT Mutant HTRF iPSC assay (mHTT protein lowering)
Type: cell-based
Conditions: human iPSC derived from a HTT patient with a poly-Q49 mutation

Work on `Cc1cn2nc(-c3cn4cc(C5CCNCC5)cc(F)c4n3)cc(C)c2n1` [Compound 131, 6-(8-fluoro-6-(piperidin-4-yl)imidazo[1,2-a]pyridin-2-yl)-2,8-dimethylimidazo[1,2-b]pyridazine] yielded an IC50 of 0.1 to 1 µM.
For `CCN1CCC(c2cc(F)c3nc(-c4cc(C)c5nc(C)cn5n4)cn3c2)CC1` [Compound 132], the IC50 was 1 to 9 µM.
`Cc1cn2nc(-c3cn4cc(C5CCN(C)CC5)cc(F)c4n3)cc(C)c2n1` [Compound 133, 6-[8-fluoro-6-(1-methyl-4-piperidyl)imidazo[1,2-a]pyridin-2-yl]-2,8-dimethyl-imidazo[1,2-b]pyridazine] was tested, and the IC50 was 1 to 9 µM.
`Cc1cn2nc(-c3cn4cc(C5CCCNC5)cc(F)c4n3)cc(C)c2n1` (stereo not drawn) [Compound 134, 6-(8-fluoro-6-(piperidin-3-yl)imidazo[1,2-a]pyridin-2-yl)-2,8-dimethylimidazo[1,2-b]pyridazine] showed an IC50 of 1 to 9 µM.
Work on `Cc1cn2nc(-c3cc(F)c4cn(C5CCNCC5)nc4c3)cc(C)c2n1` [Compound 135, 6-(4-fluoro-2-(piperidin-4-yl)-2H-indazol-6-yl)-2,8-dimethylimidazo[1,2-b]pyridazine] yielded an IC50 of 0.1 to 1 µM.
For `Cc1cn2cc(-c3cc(F)c4nn(C5CCNCC5)cc4c3)cc(F)c2n1` [Compound 136, 7-fluoro-5-(8-fluoro-2-methylimidazo[1,2-a]pyridin-6-yl)-2-(piperidin-4-yl)-2H-indazole], the IC50 was 0.1 to 1 µM.
For `Cc1cn2cc(-c3cc(F)c4nn(C5CCNCC5)nc4c3)cc(F)c2n1` [Compound 137, 4-fluoro-6-(8-fluoro-2-methylimidazo[1,2-a]pyridin-6-yl)-2-(piperidin-4-yl)-2H-benzo[d][1,2,3]triazole], the IC50 was 0.1 to 1 µM.
For `Cn1cc2cc(-c3cc(F)c4nn(C5CCNCC5)nc4c3)cc(F)c2n1` [Compound 138, 4-fluoro-6-(7-fluoro-2-methyl-2H-indazol-5-yl)-2-(piperidin-4-yl)-2H-benzo[d][1,2,3]triazole], the IC50 was 0.1 to 1 µM.
In the case of `Cc1cn2nc(-c3cc(F)c4nn(C5CCNCC5)nc4c3)cc(C)c2n1` [Compound 139, 6-(2,8-dimethylimidazo[1,2-b]pyridazin-6-yl)-4-fluoro-2-(piperidin-4-yl)-2H-benzo[d][1,2,3]triazole], the IC50 is reported as less than 0.1 µM.
Molecule `Cc1cn2nc(-c3cc(F)c4[nH]c(C5CCNCC5)nc4c3)cc(C)c2n1` [Compound 140, 6-(7-fluoro-2-(piperidin-4-yl)-1H-benzo[d]imidazol-5-yl)-2,8-dimethylimidazo[1,2-b]pyridazine] has an IC50 of less than 0.1 µM.
`Cn1cc2cc(-c3cc(F)c4[nH]c(C5CCNCC5)nc4c3)cc(F)c2n1` [Compound 141, 7-fluoro-5-(7-fluoro-2-(piperidin-4-yl)-1H-benzo[d]imidazol-5-yl)-2-methyl-2H-indazole] showed an IC50 of 1 to 9 µM.
With `Cc1cc(-c2cc(F)c3[nH]c(C4CCNCC4)nc3c2)cc2cn(C)nc12` [Compound 142, 5-(7-fluoro-2-(piperidin-4-yl)-1H-benzo[d]imidazol-5-yl)-2,7-dimethyl-2H-indazole] the IC50 was 1 to 9 µM.
Molecule `Cc1cn2cc(-c3cc(F)c4[nH]c(C5CCNCC5)nc4c3)cc(F)c2n1` [Compound 143, 7-fluoro-5-(8-fluoro-2-methylimidazo[1,2-a]pyridin-6-yl)-2-(piperidin-4-yl)-1H-benzo[d]imidazole] has an IC50 of 1 to 9 µM.
For `Cc1cn2cc(-c3cc(F)c4[nH]c(C5CCNCC5)nc4c3)cc(Cl)c2n1` [Compound 144, 5-(8-chloro-2-methylimidazo[1,2-a]pyridin-6-yl)-7-fluoro-2-(piperidin-4-yl)-1H-benzo[d]imidazole], the IC50 was 1 to 9 µM.
In the case of `Cc1cn2cc(-c3cc(F)c4[nH]c(C5CCNCC5)nc4c3)cc2c(C)n1` [Compound 145, 5-(1,3-dimethylpyrrolo[1,2-a]pyrazin-7-yl)-7-fluoro-2-(piperidin-4-yl)-1H-benzo[d]imidazole], the IC50 is reported as 1 to 9 µM.
For `Cn1nc2ccc(-c3cc(F)c4[nH]c(C5CCNCC5)nc4c3)cc2n1` [Compound 146, 5-(7-fluoro-2-(piperidin-4-yl)-1H-benzo[d]imidazol-5-yl)-2-methyl-2H-benzo[d][1,2,3]triazole], the IC50 was 1 to 9 µM.
`Cc1cn2cc(-c3cc(F)c4[nH]c(C5CCNCC5)nc4c3)cc(C)c2n1` [Compound 147, 5-(2,8-dimethylimidazo[1,2-a]pyridin-6-yl)-7-fluoro-2-(piperidin-4-yl)-1H-benzo[d]imidazole] showed an IC50 of 1 to 9 µM.
`Cn1nc2cc(-c3cc(F)c4[nH]c(C5CCNCC5)nc4c3)cc(F)c2n1` [Compound 148, 4-fluoro-6-(7-fluoro-2-(piperidin-4-yl)-1H-benzo[d]imidazol-5-yl)-2-methyl-2H-benzo[d][1,2,3]triazole] gave an IC50 of 0.1 to 1 µM.
Molecule `Cc1nc2c(F)cc(-c3cc(F)c4[nH]c(C5CCNCC5)nc4c3)cn2n1` [Compound 149, 8-fluoro-6-(7-fluoro-2-(piperidin-4-yl)-1H-benzo[d]imidazol-5-yl)-2-methyl-[1,2,4]triazolo[1,5-a]pyridine] has an IC50 of 1 to 9 µM.
In the case of `Cc1cn2nc(-c3cc(F)c4nc(C5CCNCC5)nn4c3)cc(C)c2n1` [Compound 150, 6-(2,8-dimethylimidazo[1,2-b]pyridazin-6-yl)-8-fluoro-2-(4-piperidyl)-[1,2,4]triazolo[1,5-a]pyridine], the IC50 is reported as less than 0.1 µM.
`Cc1cn2cc(-c3cc(F)c4nc(C5CCNCC5)nn4c3)cc(F)c2n1` [Compound 151, 8-fluoro-6-(8-fluoro-2-methylimidazo[1,2-a]pyridin-6-yl)-2-(piperidin-4-yl)-[1,2,4]triazolo[1,5-a]pyridine] was tested, and the IC50 was 1 to 9 µM.
`CCc1nc(C)cn2cc(-c3cc(F)c4nc(C5CCNCC5)nn4c3)cc12` [Compound 152] was tested, and the IC50 was less than 0.1 µM.
Work on `Cc1cn2nc(-c3cc(F)c4nc(C5CCNCC5)cn4c3)cc(C(F)F)c2n1` [Compound 153, 8-(difluoromethyl)-6-(8-fluoro-2-(piperidin-4-yl)imidazo[1,2-a]pyridin-6-yl)-2-methylimidazo[1,2-b]pyridazine] yielded an IC50 of less than 0.1 µM.
In the case of `Cc1cn2nc(-c3cc(F)c4nc(C5CCNCC5)oc4c3)cc(C)c2n1` [Compound 154, 6-(2,8-dimethylimidazo[1,2-b]pyridazin-6-yl)-4-fluoro-2-(4-piperidyl)-1,3-benzoxazole], the IC50 is reported as less than 0.1 µM.
Molecule `Cc1cn2cc(-c3cc(F)c4nc(C5CCNCC5)oc4c3)cc(C)c2n1` [Compound 155, 6-(2,8-dimethylimidazo[1,2-a]pyridin-6-yl)-4-fluoro-2-(piperidin-4-yl)benzo[d]oxazole] has an IC50 of 1 to 9 µM.
Work on `Cc1cn2cc(-c3cc(F)c4nc(C5CCNCC5)oc4c3)cc(F)c2n1` [Compound 156, 4-fluoro-6-(8-fluoro-2-methylimidazo[1,2-a]pyridin-6-yl)-2-(piperidin-4-yl)benzo[d]oxazole] yielded an IC50 of 1 to 9 µM.
`Cc1cc(-c2cc(F)c3nc(C4CCNCC4)oc3c2)cc2cn(C)nc12` [Compound 157, 6-(2,7-dimethyl-2H-indazol-5-yl)-4-fluoro-2-(piperidin-4-yl)benzo[d]oxazole] gave an IC50 of 0.1 to 1 µM.
Molecule `Cc1cn2nc(-c3cc(F)c4nc(C5(F)CCNCC5)cn4c3)cc(C)c2n1` [Compound 158, 6-(8-fluoro-2-(4-fluoropiperidin-4-yl)imidazo[1,2-a]pyridin-6-yl)-2,8-dimethylimidazo[1,2-b]pyridazine] has an IC50 of less than 0.1 µM.
`Cc1cn2nc(-c3cc(F)c4nc(C56CNC(C5)C6)cn4c3)cc(C)c2n1` [Compound 159] gave an IC50 of 0.1 to 1 µM.
`Cc1cn2nc(-c3cc(F)c4nc(C5CCNC5)cn4c3)cc(C)c2n1` (stereo not drawn) [Compound 160, 6-(8-fluoro-2-(pyrrolidin-3-yl)imidazo[1,2-a]pyridin-6-yl)-2,8-dimethylimidazo[1,2-b]pyridazine] gave an IC50 of less than 0.1 µM.
In the case of `Cc1cn2nc(-c3cc(F)c4nc([C@H]5[C@@H]6CNC[C@@H]65)cn4c3)cc(C)c2n1` [Compound 161, 6-[2-[(1S,5R)-3-azabicyclo[3.1.0]hexan-6-yl]-8-fluoro-imidazo[1,2-a]pyridin-6-yl]-2,8-dimethyl-imidazo[1,2-b]pyridazine], the IC50 is reported as less than 0.1 µM.
In the case of `COc1cc2cc(-c3cc(F)c4nc(C5CCNCC5)cn4c3)ccc2cn1` [Compound 164, 6-(8-fluoro-2-(piperidin-4-yl)imidazo[1,2-a]pyridin-6-yl)-3-methoxyisoquinoline], the IC50 is reported as 0.1 to 1 µM.
`Cc1cn2nc(-c3cc(F)c4nc(C5CCN(CC6CC6)CC5)cn4c3)cc(C)c2n1` [Compound 165, 6-(2-(1-(cyclopropylmethyl)piperidin-4-yl)-8-fluoroimidazo[1,2-a]pyridin-6-yl)-2,8-dimethylimidazo[1,2-b]pyridazine] was tested, and the IC50 was less than 0.1 µM.
For `Cc1cn2nc(-c3cc(F)c4nc(C5CCN(C)CC5)cn4c3)cc(C(F)F)c2n1` [Compound 166, 8-(difluoromethyl)-6-(8-fluoro-2-(1-methylpiperidin-4-yl)imidazo[1,2-a]pyridin-6-yl)-2-methylimidazo[1,2-b]pyridazine], the IC50 was less than 0.1 µM.
`Cc1cn2nc(-c3cc(F)c4nc(C5CCN(C6CC6)CC5)cn4c3)cc(C(F)F)c2n1` [Compound 167, 6-(2-(1-cyclopropylpiperidin-4-yl)-8-fluoroimidazo[1,2-a]pyridin-6-yl)-8-(difluoromethyl)-2-methylimidazo[1,2-b]pyridazine] gave an IC50 of less than 0.1 µM.
Molecule `Cc1cn2nc(-c3cc(F)c4nc(C5CCC(N(C)C)CC5)cn4c3)cc(C)c2n1` (stereo not drawn) [Compound 168, 4-(6-(2,8-dimethylimidazo[1,2-b]pyridazin-6-yl)-8-fluoroimidazo[1,2-a]pyridin-2-yl)-N,N-dimethylcyclohexan-1-amine] has an IC50 of less than 0.1 µM.
In the case of `Cc1cn2nc(-c3cc(F)c4nc(C5CCOCC5)cn4c3)cc(C)c2n1` [Compound 169, 6-(8-fluoro-2-(tetrahydro-2H-pyran-4-yl)imidazo[1,2-a]pyridin-6-yl)-2,8-dimethylimidazo[1,2-b]pyridazine], the IC50 is reported as 0.1 to 1 µM.
`CN[C@H]1CC[C@H](c2cn3cc(-c4cc(F)c5nn(C)cc5c4)cc(F)c3n2)CC1` [Compound 170, (1r,4r)-4-(8-fluoro-6-(7-fluoro-2-methyl-2H-indazol-5-yl)imidazo[1,2-a]pyridin-2-yl)-N-methylcyclohexan-1-amine] gave an IC50 of less than 0.1 µM.
`Cc1cc(-c2cc(F)c3nc(C4CCN(C5CC5)CC4)cn3c2)nc2cn(C)nc12` [Compound 171, 5-(2-(1-cyclopropylpiperidin-4-yl)-8-fluoroimidazo[1,2-a]pyridin-6-yl)-2,7-dimethyl-2H-pyrazolo[4,3-b]pyridine] showed an IC50 of less than 0.1 µM.

From patent US20250353841A1 (BIOGEN MA INC., priority 2022, published 2025)
